Test results reported in US6395733B1, “Heterocyclic ring-fused pyrimidine derivatives” (Pfizer Inc, priority 1999, dated 2002).

test system: another carcinoma which does not express the EGF receptor; conditions: athymic nude mice; cited from earlier work

In the case of `O=CN/C=C/c1cc(O)ccc1O` [erbstatin], the “growth of carcinoma not expressing the EGF receptor” value is given as “without effect on the growth”.

test system: not given; conditions: not given

First: Cc1cc2c(Nc3ccc(O)c(I)c3)ncnc2cn1.Cl
Second: Cc1cc2c(Nc3ccc(O)c(C)c3)ncnc2cn1.Cl.Cl
The melting point of the first is lower: 261 to 265 °C for the first, 298 to 305 °C for the second.

Compared with `Cc1cc2c(Nc3ccc(F)c(C)c3)ncnc2cn1.Cl`, `Cc1cc2c(Nc3ccc(F)c(Cl)c3)ncnc2cn1.Cl` is higher in melting point: 246 to 250 °C for the first, 251 to 258 °C for the second.

First: Cc1cc2c(N3CCc4c(Br)ccc(C)c43)ncnc2cn1.Cl
Second: Cc1cc2c(N3CCc4ccc(Br)c(C)c43)ncnc2cn1.Cl
The melting point of the first is higher: 232 to 244 °C for the first, 212 to 229 °C for the second.

Compared with `Cl.c1nc(Nc2ccc3[nH]ccc3c2)c2cc[nH]c2n1`, `CS(=O)(=O)O.Cc1cc2c(Nc3ccc4[nH]ccc4c3)ncnc2cn1` is higher in melting point: 218 to 221 °C for the first, 262 to 263 °C for the second.

Compared with `Cc1cc2c(Nc3ccc(Br)c(F)c3)ncnc2cn1.Cl`, `C#Cc1cc(Nc2ncnc3cnc(C)cc23)ccc1F` is lower in melting point: 251 to 254 °C for the first, 225 °C for the second.

Compared with `Cl.c1cc2c(Nc3ccc4sccc4c3)ncnc2cn1`, `Cc1cccc(Nc2ncnc3cnccc23)c1` is lower in melting point: 280 to 282 °C for the first, 172 °C for the second.

First: Cc1cc2c(Nc3cccc(C(F)(F)F)c3)ncnc2cn1.Cl
Second: C#Cc1cccc(Nc2ncnc3cnc(C)cc23)c1.Cl
The melting point of the first is higher: 269 to 270 °C for the first, 250 to 252 °C for the second.

Compared with `c1ccc(Nc2ncnc3cnccc23)cc1`, `c1ccc(Nc2ncnc3ncccc23)cc1` is higher in melting point: 161 °C for the first, 258 °C for the second.

First: Cc1cc2c(N3CCc4ccc(Cl)cc43)ncnc2cn1
Second: Clc1ccc2c(c1)N(c1ncnc3cnccc13)CC2
The melting point of the first is higher: 232 to 234 °C for the first, 194 to 196 °C for the second.

First: Cc1cc2c(N3CCc4cc(F)c(Br)cc43)ncnc2cn1.Cl
Second: C#Cc1cccc(Nc2ncnc3cc(C)ncc23)c1.Cl
The melting point of the first is higher: 262 to 264 °C for the first, 240 to 241 °C for the second.

`C#Cc1cccc(Nc2ncnc3c2ccn3CCOCCOC)c1` gave a melting point of 240 to 241 °C.

With `Cl.Clc1ccc2c(c1)N(c1ncnc3[nH]ccc13)CC2` the melting point was 266 °C (dec.).
With `Oc1cc2ncnc(N3CCc4ccc(Cl)cc43)c2[nH]1` the melting point was 250 °C (dec.).

test system: transplanted human mammary carcinoma which expresses epidermal growth factor receptor tyrosine kinase (EGFR); conditions: athymic nude mice; cited from earlier work

For `O=CN/C=C/c1cc(O)ccc1O` [erbstatin], the “growth of transplanted human mammary carcinoma expressing EGFR” value is listed as “selectively attenuates the growth”.
